Read-outs that look alike come from different tables or passages of the source.
Target: Cbl-b protein (CBL-B, GST-Tag) (Homo sapiens (Human), UniProt Q13191)
Experiment: HTRF based binding assay, affinity to Cbl-b protein
[1] = HTRF binding, CBL-B (GST-Tag), fluorescence labeled Cbl-b binding probe

Chain of Cbl-b protein (CBL-B, GST-Tag) (Q13191 whole entry): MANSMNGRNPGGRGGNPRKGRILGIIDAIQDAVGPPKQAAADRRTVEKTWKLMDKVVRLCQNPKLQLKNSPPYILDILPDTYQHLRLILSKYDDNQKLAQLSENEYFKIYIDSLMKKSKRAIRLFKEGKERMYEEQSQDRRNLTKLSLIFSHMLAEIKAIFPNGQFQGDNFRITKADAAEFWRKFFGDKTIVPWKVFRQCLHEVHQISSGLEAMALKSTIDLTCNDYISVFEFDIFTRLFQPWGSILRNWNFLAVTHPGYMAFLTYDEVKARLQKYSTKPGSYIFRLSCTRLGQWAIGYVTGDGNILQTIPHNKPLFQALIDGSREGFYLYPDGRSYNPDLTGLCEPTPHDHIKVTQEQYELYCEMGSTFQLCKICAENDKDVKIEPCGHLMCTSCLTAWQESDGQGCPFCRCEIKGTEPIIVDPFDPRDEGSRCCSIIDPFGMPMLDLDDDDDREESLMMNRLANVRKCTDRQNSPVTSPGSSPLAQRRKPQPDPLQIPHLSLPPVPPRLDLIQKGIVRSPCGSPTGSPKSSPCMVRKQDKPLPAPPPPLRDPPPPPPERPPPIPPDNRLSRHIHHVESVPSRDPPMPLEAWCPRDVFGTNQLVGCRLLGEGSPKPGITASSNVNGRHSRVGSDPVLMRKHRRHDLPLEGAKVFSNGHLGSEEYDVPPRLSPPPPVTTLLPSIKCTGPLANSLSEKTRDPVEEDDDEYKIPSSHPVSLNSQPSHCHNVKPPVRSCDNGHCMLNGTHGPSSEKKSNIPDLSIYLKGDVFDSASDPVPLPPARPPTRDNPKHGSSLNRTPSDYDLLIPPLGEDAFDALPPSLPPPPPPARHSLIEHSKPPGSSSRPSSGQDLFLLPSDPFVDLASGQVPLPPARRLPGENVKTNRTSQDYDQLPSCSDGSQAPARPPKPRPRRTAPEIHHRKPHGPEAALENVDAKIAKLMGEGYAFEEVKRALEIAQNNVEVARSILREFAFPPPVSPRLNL

Row | SMILES | IC50 | IC50 [1]
1 | C#CC1CCCN(Cc2cc(C(F)(F)F)c3cnn(-c4cccc(C5(c6nncn6C)CC(C)C5)c4)c(=O)c3c2)C1 (stereo not shown) [Example 20] | 500 to 1000 nM | 
2 | CC1CC(c2cc(CO)cc(-n3cc4c(C(F)(F)F)cc(CN5CCC[C@H](C)C5)cc4n3)c2)(c2nncn2C)C1 (stereo partly shown) [Example 60] | 50 to 500 nM | 
3 | CC1CC(c2cncc(-n3ncc4c(C(F)(F)F)cc(CN5CCC[C@H](C)C5)cc4c3=O)c2)(c2nncn2C)C1 (stereo partly shown) [Example 77] |  | < 20 nM
4 | C=C(F)c1cc([C@]2(c3nncn3C)C[C@@H](C)C2)cc(-n2cnc3c(C(F)(F)F)cc(CN4CCC[C@H](C)C4)cc3c2=O)n1 [Example 107] |  | < 20 nM
5 | C[C@H]1CCCN(Cc2cc(C(F)(F)F)c3ncn(-c4cccc(C5(c6nncn6C)CC(=O)C5)c4)c(=O)c3c2)C1 [Example 67] | 50 to 500 nM | 
6 | CC1CC(c2cccc(-n3ncc4c(C(F)(F)F)cc(CN5CCCCC5)cc4c3=O)c2)(c2nncn2C)C1 (stereo not shown) [Example 22] | 50 to 500 nM | 
7 | C#Cc1cc(-n2cc3c(C(F)(F)F)cc(CN4CCC[C@H](C)C4)cc3n2)cc(C2(c3nncn3C)CC(C)C2)c1 (stereo partly shown) [Example 51] | 50 to 500 nM | 
8 | C[C@H]1CCCN(Cc2cc(C(=O)Nc3cccc(C(c4nncn4C)C4CCC4)c3)cc(C(F)(F)F)c2)C1 (stereo partly shown) [Example 31] | 50 to 500 nM | 
9 | CNC(=O)c1cc(-n2cc3c(C(F)(F)F)cc(CN4CCC[C@H](C)C4)cc3n2)cc(C2(c3nncn3C)CC(C)C2)c1 (stereo partly shown) [Example 43] | 50 to 500 nM | 
10 | CC1CC(c2cccc(-c3nc4cc(CN5CCC[C@H](C)C5)cc(C(F)(F)F)c4n3C)c2)(c2nncn2C)C1 (stereo partly shown) [Example 8] | 50 to 500 nM | 
11 | C[C@H]1CCCN(Cc2ccc3ncn(-c4cc([C@]5(c6nncn6C)C[C@@H](C)C5)cc(OCF)n4)c(=O)c3c2)C1 [Example 112] |  | < 20 nM
12 | CC1CC(c2cccc(-n3cnc4c(C(F)(F)F)cc(CN5CCC[C@H](C)C5)cc4c3=O)c2)(c2nncn2C)C1 (stereo partly shown) [Example 84] |  | < 20 nM
13 | Cn1cnnc1[C@]1(c2ccnc(-n3ncc4c(C(F)(F)F)cc(CN5CCOC6(CCC6)C5)cc4c3=O)c2)C[C@H](C)C1 [Example 39] | 500 to 1000 nM | 
14 | CC1CC(c2cccc(NC(=O)c3cc(CN4CCC[C@H](C)C4)cc(C(F)(F)F)c3)c2)(c2nncn2C)C1 (stereo partly shown) [Example 30] | 20 to 50 nM | 
15 | CC1CC(c2cccc(-n3cnc4c(C(F)(F)F)c(CN5CCC[C@H](C)C5)[nH]c4c3=O)c2)(c2nncn2C)C1 (stereo partly shown) [Example 63] |  | < 20 nM
16 | C[C@H]1CCCN(Cc2cc(C(F)(F)F)c3sc(-c4cccc(C5(Cc6nncn6C)COC5)c4)nc3c2)C1 [Example 16] |  | < 20 nM

Row | SMILES | IC50 | IC50 [1]
17 | CC1CC(c2cccc(-n3nc(C(F)(F)F)c4ccc(CN5CCC[C@H](C)C5)cc4c3=O)c2)(c2nncn2C)C1 (stereo partly shown) [Example 9] | 50 to 500 nM | 
18 | CC1CC(c2cccc(NC(=O)c3cc(CN4CCC[C@H](C)C4)cc4c3OCCC4(F)F)c2)(c2nncn2C)C1 (stereo partly shown) [Example 24] |  | < 20 nM
19 | CC1CC(c2cccc(-n3ncc4c(C(F)(F)F)cc(CN5CCC(F)(F)[C@H](C)C5)cc4c3=O)c2)(c2nncn2C)C1 (stereo partly shown) [Example 14] | 50 to 500 nM | 
20 | C[C@H]1CCCN(Cc2cc(C(F)(F)F)c3ncn(-c4cc([C@]5(c6nncn6C(F)F)C[C@@H](C)C5)ccn4)c(=O)c3c2)C1 [Example 48] |  | < 20 nM
21 | CC1=CCCN(Cc2cc(C(F)(F)F)c3cn(-c4cccc(C5(c6nncn6C)CC(C)C5)c4)nc3c2)C1 (stereo not shown) [Example 79] | 20 to 50 nM | 
22 | C[C@H]1CCCN(Cc2cc(C(=O)Nc3cccc([C@@H](c4nncn4C)C4COC4)c3)cc(C(F)(F)F)c2)C1 [Example 26] |  | > 1000 nM
23 | CC1CC(c2ccnc(-n3cnc4c(C(F)(F)F)c(CN5CCC[C@H](C)C5)[nH]c4c3=O)c2)(c2nncn2C)C1 (stereo partly shown) [Example 46] | 50 to 500 nM | 
24 | C[C@@H]1CN(Cc2cc(C(F)(F)F)c3ncn(-c4cc([C@]5(c6nncn6C)C[C@@H](C)C5)cc(OCF)n4)c(=O)c3c2)CCC1F (stereo partly shown) [Example 106] |  | < 20 nM
25 | CC1CN(Cc2cc(C(F)(F)F)c3ncn(-c4cc([C@]5(c6nncn6C)C[C@@H](C)C5)cc(OCF)n4)c(=O)c3c2)CCC1(F)F (stereo partly shown) [Example 109] |  | < 20 nM
26 | C[C@H]1CCCN(Cc2cc(C(F)(F)F)c3ncn(-c4cc(C5(Cc6nncn6C)COC5)ccn4)c(=O)c3c2)C1 [Example 35] | 50 to 500 nM | 
27 | CC1CC(c2cccc(-n3cc4c(C(F)(F)F)cc(CN5C[C@@H](C)C[C@H](C)C5)cc4n3)c2)(c2nncn2C)C1 (stereo partly shown) [Example 86] | 50 to 500 nM | 
28 | Cn1cnnc1C(F)C1(c2cccc(-n3cc4c(C(F)(F)F)cc(CN5CCC[C@H](C6CC6)C5)cc4n3)c2)COC1 (stereo partly shown) [Example 50] |  | < 20 nM
29 | C[C@H]1CCCN(Cc2cc(C(F)(F)F)c3cn(-c4cccc(C5(C(F)c6nncn6C)COC5)c4)nc3c2)C1 (stereo partly shown) [Example 57] |  | < 20 nM
30 | Cn1cnnc1[C@]1(c2ccnc(-n3cnc4c(C(F)(F)F)cc(CN5CCC[C@H](CF)C5)cc4c3=O)c2)C[C@H](C)C1 [Example 105] |  | < 20 nM
31 | C[C@H]1CCCN(Cc2cc(C(F)(F)F)c3cn(-c4cc([C@]5(c6nncn6C)C[C@H](C)C5)ccn4)nc3c2)C1 [Example 71] | 50 to 500 nM | 

From patent publication US20260008770A1, “CBL-B INHIBITORS AND METHODS OF USES THEREOF” (Insilico Medicine IP Limited, priority 2022, published 2026)
